Assay results reported in ChEMBL document CHEMBL3112495, “Diphenylpyridylethanamine (DPPE)-based aminoheterocycles as cholesteryl ester transfer protein inhibitors” (Bioorg Med Chem Lett, 2014).
pIC50: −log10 of the molar value.

How the values were obtained:
[1] = Metabolic stability of the compound in mouse liver microsomes assessed as compound remaining after 10 mins; assay type: ADME, Microsome; conditions: read-out: Stability
Cytochrome P450 2D6 = Cytochrome P450 2D6 (Homo sapiens, UniProt P10635); assay: Inhibition of CYP2D6 (unknown origin); assay type: ADME
[2] = biological target: T1, Nuclear receptor subfamily 1 group I member 2 (Homo sapiens, UniProt O75469); assay: Activation of PXR (unknown origin)
T1 sequence (O75469 whole entry): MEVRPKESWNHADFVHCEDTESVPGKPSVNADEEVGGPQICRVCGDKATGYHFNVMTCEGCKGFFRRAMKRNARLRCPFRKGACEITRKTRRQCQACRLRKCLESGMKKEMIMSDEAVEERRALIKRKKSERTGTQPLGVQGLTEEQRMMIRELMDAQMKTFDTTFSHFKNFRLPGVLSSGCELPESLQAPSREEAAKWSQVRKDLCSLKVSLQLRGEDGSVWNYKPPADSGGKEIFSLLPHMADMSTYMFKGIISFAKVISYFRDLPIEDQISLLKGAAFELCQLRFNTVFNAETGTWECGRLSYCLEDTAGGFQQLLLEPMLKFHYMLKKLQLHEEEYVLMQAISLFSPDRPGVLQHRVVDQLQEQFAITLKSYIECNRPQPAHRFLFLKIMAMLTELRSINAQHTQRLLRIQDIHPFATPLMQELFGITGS

[3] = Metabolic stability of the compound in rat liver microsomes assessed as compound remaining after 10 mins; assay type: ADME; conditions: read-out: Stability
PXR = biological target: T2, PXR (Homo sapiens, UniProt O75469); assay: Activation of PXR (unknown origin) relative to rifampicin
T2 sequence (O75469 whole entry): T1 sequence (O75469 whole entry)

Cytochrome P450 3A4 [4] = biological target: T3, Cytochrome P450 3A4 (Homo sapiens, UniProt P08684); assay: Inhibition of CYP3A4 (unknown origin) using benzyloxyresorufin as substrate; assay type: ADME
Cytochrome P450 2C9 = Cytochrome P450 2C9 (Homo sapiens, UniProt P11712); assay: Inhibition of CYP2C9 (unknown origin); assay type: ADME
Cytochrome P450 1A2 = biological target: T4, Cytochrome P450 1A2 (Homo sapiens, UniProt P05177); assay: Inhibition of CYP1A2 (unknown origin); assay type: ADME
T4 sequence (P05177 whole entry): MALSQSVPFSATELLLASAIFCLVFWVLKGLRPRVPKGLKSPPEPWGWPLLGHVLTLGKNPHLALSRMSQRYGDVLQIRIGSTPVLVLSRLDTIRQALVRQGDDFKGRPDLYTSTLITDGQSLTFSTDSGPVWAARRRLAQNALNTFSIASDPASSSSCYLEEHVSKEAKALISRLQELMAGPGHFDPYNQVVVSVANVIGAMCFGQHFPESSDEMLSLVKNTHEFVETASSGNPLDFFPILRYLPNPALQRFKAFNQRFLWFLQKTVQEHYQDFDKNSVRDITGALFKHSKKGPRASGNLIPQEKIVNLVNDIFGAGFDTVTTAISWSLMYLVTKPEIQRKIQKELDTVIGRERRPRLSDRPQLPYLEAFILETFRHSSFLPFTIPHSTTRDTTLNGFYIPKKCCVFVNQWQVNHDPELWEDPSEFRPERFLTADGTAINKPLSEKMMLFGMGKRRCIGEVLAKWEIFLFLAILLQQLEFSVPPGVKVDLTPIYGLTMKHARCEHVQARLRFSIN

Cytochrome P450 3A4 [5] = biological target: T3, Cytochrome P450 3A4; assay: Inhibition of CYP3A4 (unknown origin) using 7-benzyloxy-4-trifluoromethylcoumarin as substrate; assay type: ADME
[6] = Metabolic stability of the compound in human liver microsomes assessed as compound remaining after 10 mins; assay type: ADME; conditions: read-out: Stability
Cytochrome P450 2C19 = Cytochrome P450 2C19 (Homo sapiens, UniProt P33261); assay: Inhibition of CYP2C19 (unknown origin); assay type: ADME
[7] = biological target: T5, Cholesteryl ester transfer protein (Homo sapiens, UniProt P11597); assay: Inhibition of human recombinant CETP using [3H]-CE/HDL by scintillation proximity assay
T5 sequence (P11597 whole entry): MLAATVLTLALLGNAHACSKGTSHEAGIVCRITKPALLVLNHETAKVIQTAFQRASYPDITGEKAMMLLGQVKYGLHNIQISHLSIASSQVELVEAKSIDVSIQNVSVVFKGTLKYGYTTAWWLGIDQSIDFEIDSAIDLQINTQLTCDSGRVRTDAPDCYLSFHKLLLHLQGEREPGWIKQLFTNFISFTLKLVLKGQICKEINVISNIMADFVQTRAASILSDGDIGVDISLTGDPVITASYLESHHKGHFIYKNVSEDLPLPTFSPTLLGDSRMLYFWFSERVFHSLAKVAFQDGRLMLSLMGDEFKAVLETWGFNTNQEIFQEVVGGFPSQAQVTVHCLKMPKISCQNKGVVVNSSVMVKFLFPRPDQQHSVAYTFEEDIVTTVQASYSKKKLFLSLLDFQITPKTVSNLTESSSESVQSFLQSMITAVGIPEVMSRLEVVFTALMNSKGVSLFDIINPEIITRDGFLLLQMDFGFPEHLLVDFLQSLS

[8] = biological target: T5, Cholesteryl ester transfer protein; assay: Inhibition of CETP in human whole plasma using [3H]-CE/HDL after 10 mins

Sequence of Cytochrome P450 2D6 (P10635 whole entry): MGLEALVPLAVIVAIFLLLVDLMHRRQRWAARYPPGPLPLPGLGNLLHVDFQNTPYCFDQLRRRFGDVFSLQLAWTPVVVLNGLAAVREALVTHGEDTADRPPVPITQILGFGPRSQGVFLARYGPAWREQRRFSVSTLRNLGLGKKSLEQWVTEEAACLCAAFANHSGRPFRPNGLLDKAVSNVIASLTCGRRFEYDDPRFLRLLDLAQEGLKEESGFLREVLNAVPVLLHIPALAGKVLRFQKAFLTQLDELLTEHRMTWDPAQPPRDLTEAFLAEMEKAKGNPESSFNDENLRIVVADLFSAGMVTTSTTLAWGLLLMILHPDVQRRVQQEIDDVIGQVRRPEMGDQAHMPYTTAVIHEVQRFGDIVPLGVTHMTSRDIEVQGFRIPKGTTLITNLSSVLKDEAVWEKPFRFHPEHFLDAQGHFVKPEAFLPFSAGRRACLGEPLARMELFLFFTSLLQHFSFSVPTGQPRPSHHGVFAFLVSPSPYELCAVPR
T3 sequence (P08684 whole entry): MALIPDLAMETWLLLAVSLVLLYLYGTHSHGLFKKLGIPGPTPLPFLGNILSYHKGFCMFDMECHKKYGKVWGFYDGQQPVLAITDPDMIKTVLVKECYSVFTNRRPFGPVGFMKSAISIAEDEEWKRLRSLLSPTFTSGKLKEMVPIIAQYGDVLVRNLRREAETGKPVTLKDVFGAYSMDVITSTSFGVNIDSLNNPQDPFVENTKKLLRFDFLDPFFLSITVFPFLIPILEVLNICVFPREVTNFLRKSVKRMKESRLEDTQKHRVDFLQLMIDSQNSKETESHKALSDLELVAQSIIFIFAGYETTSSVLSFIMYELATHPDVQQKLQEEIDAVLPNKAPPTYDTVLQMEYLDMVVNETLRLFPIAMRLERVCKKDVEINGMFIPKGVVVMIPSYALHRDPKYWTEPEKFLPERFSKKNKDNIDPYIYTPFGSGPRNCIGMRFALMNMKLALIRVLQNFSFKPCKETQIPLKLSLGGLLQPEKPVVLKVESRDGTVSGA
Sequence of Cytochrome P450 2C9 (P11712 whole entry): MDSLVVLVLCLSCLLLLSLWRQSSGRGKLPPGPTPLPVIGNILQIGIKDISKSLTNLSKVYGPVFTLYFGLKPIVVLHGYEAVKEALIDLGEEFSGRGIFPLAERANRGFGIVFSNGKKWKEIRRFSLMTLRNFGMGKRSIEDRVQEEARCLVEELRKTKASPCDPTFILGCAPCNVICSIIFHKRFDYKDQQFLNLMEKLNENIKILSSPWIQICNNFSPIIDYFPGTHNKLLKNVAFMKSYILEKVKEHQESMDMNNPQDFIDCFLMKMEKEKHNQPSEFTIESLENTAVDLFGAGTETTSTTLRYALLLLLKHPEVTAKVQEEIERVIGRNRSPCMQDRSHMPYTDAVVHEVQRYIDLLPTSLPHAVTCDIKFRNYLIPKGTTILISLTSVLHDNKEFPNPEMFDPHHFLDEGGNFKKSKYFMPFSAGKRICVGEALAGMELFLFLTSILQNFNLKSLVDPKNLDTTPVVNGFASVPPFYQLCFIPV
Sequence of Cytochrome P450 2C19 (P33261 whole entry): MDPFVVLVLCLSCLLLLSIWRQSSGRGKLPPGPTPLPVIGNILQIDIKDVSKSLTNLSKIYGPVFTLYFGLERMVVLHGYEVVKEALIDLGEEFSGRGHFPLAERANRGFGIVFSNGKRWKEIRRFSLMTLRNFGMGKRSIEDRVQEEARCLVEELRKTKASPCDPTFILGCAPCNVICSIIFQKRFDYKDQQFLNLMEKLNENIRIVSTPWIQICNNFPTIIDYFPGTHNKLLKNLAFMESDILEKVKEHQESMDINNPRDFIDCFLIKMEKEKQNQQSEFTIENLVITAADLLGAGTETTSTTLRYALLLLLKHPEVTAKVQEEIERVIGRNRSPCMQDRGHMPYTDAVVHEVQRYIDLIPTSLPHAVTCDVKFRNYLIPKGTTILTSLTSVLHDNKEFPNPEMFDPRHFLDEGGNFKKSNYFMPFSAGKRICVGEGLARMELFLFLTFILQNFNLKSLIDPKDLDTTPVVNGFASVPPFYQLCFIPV

## O=C(NC1CCCC1)N[C@@](Cc1ccccc1)(c1cc(F)cc(OC(F)(F)C(F)F)c1)c1ccc(Cl)cn1
[1]
  remaining at 10 min: 4%
Cytochrome P450 2D6
  pIC50: 4.82
[2]
  EC60: 0.7 µM
[3]
  remaining at 10 min: 12%
PXR
  Emax: 88%
Cytochrome P450 3A4 [4]
  pIC50: 5.44
Cytochrome P450 2C9
  pIC50: 5.36
Cytochrome P450 1A2
  pIC50: 4.40
Cytochrome P450 3A4 [5]
  pIC50: 5.06
[6]
  remaining at 10 min: 10%
Cytochrome P450 2C19
  pIC50: 4.77

## Fc1cc(OC(F)(F)C(F)F)cc([C@@](Cc2ccccc2)(Nc2nc3c(F)cc(F)cc3[nH]2)c2ccc(Cl)cn2)c1
[1]
  remaining at 10 min: 72%
Cytochrome P450 2D6
  pIC50: 4.40
[2]
  EC60: > 5.6 µM
[3]
  remaining at 10 min: 100%
[7]
  pIC50: 7.40
PXR
  Emax: 25%
Cytochrome P450 3A4 [4]
  pIC50: 4.72
Cytochrome P450 2C9
  pIC50: 4.82
Cytochrome P450 1A2
  pIC50: 4.40
Cytochrome P450 3A4 [5]
  pIC50: 4.62
[8]
  pIC50: 5.19
[6]
  remaining at 10 min: 68%
Cytochrome P450 2C19
  pIC50: 5.52

## Fc1cc(OC(F)(F)C(F)F)cc([C@@](Cc2ccccc2)(Nc2nc3cc(F)ccc3[nH]2)c2ccc(Cl)cn2)c1
[1]
  remaining at 10 min: 62%
Cytochrome P450 2D6
  pIC50: 4.54
[2]
  EC60: > 17 µM
[3]
  remaining at 10 min: 95%
[7]
  pIC50: 7.30
PXR
  Emax: 56%
Cytochrome P450 3A4 [4]
  pIC50: 4.40
Cytochrome P450 2C9
  pIC50: 4.40
Cytochrome P450 1A2
  pIC50: 4.40
Cytochrome P450 3A4 [5]
  pIC50: 4.49
[8]
  pIC50: 5.02
[6]
  remaining at 10 min: 56%
Cytochrome P450 2C19
  pIC50: 5.70

## Fc1cc(OC(F)(F)C(F)F)cc([C@@](Cc2ccccc2)(Nc2nc3ccccc3[nH]2)c2ccc(Cl)cn2)c1
Cytochrome P450 2D6
  pIC50: 4.40
[2]
  EC60: > 17 µM
[7]
  pIC50: 7.05
PXR
  Emax: 70%
Cytochrome P450 3A4 [4]
  pIC50: 4.89
Cytochrome P450 2C9
  pIC50: 4.72
Cytochrome P450 1A2
  pIC50: 4.40
Cytochrome P450 3A4 [5]
  pIC50: 4.40
[8]
  pIC50: 4.82
Cytochrome P450 2C19
  pIC50: 5.52

## Cc1sc(N[C@](Cc2ccccc2)(c2cc(F)cc(OC(F)(F)C(F)F)c2)c2ccc(Cl)cn2)nc1C(F)(F)F
[1]
  remaining at 10 min: 59%
Cytochrome P450 2D6
  pIC50: < 4.40
[2]
  EC60: > 5.6 µM
[3]
  remaining at 10 min: 55%
[7]
  pIC50: 7.70
PXR
  Emax: 44%
Cytochrome P450 3A4 [4]
  pIC50: < 4.40
Cytochrome P450 2C9
  pIC50: < 4.40
Cytochrome P450 1A2
  pIC50: < 4.40
Cytochrome P450 3A4 [5]
  pIC50: < 4.40
[8]
  pIC50: 5.49
[6]
  remaining at 10 min: 82%
Cytochrome P450 2C19
  pIC50: < 4.40

## Fc1cc(OC(F)(F)C(F)F)cc([C@@](Cc2ccccc2)(Nc2nc(C(F)(F)F)cs2)c2ccc(Cl)cn2)c1
[1]
  remaining at 10 min: 78%
Cytochrome P450 2D6
  pIC50: 4.40
[2]
  EC60: > 17 µM
[3]
  remaining at 10 min: 83%
[7]
  pIC50: 6.66
PXR
  Emax: 45%
Cytochrome P450 3A4 [4]
  pIC50: 4.40
Cytochrome P450 2C9
  pIC50: 4.40
Cytochrome P450 1A2
  pIC50: 4.40
Cytochrome P450 3A4 [5]
  pIC50: 4.40
[8]
  pIC50: 4.83
[6]
  remaining at 10 min: 98%
Cytochrome P450 2C19
  pIC50: 4.89

## Fc1cc(OC(F)(F)C(F)F)cc([C@@](Cc2ccccc2)(Nc2nc3c(s2)CCCC3)c2ccc(Cl)cn2)c1
[7]
  pIC50: 7.70
[8]
  pIC50: 5.38

## Fc1cc(OC(F)(F)C(F)F)cc([C@@](Cc2ccccc2)(Nc2nc(C(F)(F)F)c(Br)s2)c2ccc(Cl)cn2)c1
[1]
  remaining at 10 min: 100%
Cytochrome P450 2D6
  pIC50: < 4.40
[2]
  EC60: > 5.6 µM
[3]
  remaining at 10 min: 95%
[7]
  pIC50: 7.40
PXR
  Emax: 37%
Cytochrome P450 3A4 [4]
  pIC50: < 4.40
Cytochrome P450 2C9
  pIC50: < 4.40
Cytochrome P450 1A2
  pIC50: < 4.40
Cytochrome P450 3A4 [5]
  pIC50: < 4.40
[8]
  pIC50: 5.19
[6]
  remaining at 10 min: 100%
Cytochrome P450 2C19
  pIC50: < 4.40

## Cc1nc(N[C@](Cc2ccccc2)(c2cc(F)cc(OC(F)(F)C(F)F)c2)c2ccc(Cl)cn2)sc1C
[7]
  pIC50: 7.40
[8]
  pIC50: 5.26

## Fc1cc(C(F)(F)F)cc([C@](Cc2ccccc2)(Nc2nc3c(s2)CCCC3)c2ccc(Cl)cn2)c1
[7]
  pIC50: 4.97

## Cc1nc(N[C@@](Cc2ccccc2)(c2cc(F)cc(C(F)(F)F)c2)c2ccc(Cl)cn2)sc1C
[7]
  pIC50: 4.91

## Cc1nc(N[C@](Cc2ccccc2)(c2cc(F)cc(C(F)(F)F)c2)c2ccc(Cl)cn2)sc1C
[7]
  pIC50: 7.40
[8]
  pIC50: 4.76

## COC(=O)c1sc(NC(Cc2ccccc2)(c2cc(F)cc(C(F)(F)F)c2)c2ccc(Cl)cn2)nc1C (configuration not stated)
[7]
  pIC50: 4.49

## Fc1cc(C(F)(F)F)cc(C(Cc2ccccc2)(Nc2nc(C(F)(F)F)c(Br)s2)c2ccc(Cl)cn2)c1 (configuration not stated)
[7]
  pIC50: 7.00

## Fc1cc(C(F)(F)F)cc(C(Cc2ccccc2)(Nc2nc(C(F)(F)F)cs2)c2ccc(Cl)cn2)c1 (configuration not stated)
[7]
  pIC50: 5.92

## CC(C)(C)c1csc(NC(Cc2ccccc2)(c2cc(F)cc(C(F)(F)F)c2)c2ccc(Cl)cn2)n1 (configuration not stated)
[7]
  pIC50: 5.12

## CCc1csc(NC(Cc2ccccc2)(c2cc(F)cc(C(F)(F)F)c2)c2ccc(Cl)cn2)n1 (configuration not stated)
[7]
  pIC50: 6.15

## Cc1cnc(NC(Cc2ccccc2)(c2cc(F)cc(C(F)(F)F)c2)c2ccc(Cl)cn2)s1 (configuration not stated)
[7]
  pIC50: 5.96

## Cn1nnc(NC(Cc2ccccc2)(c2cc(F)cc(C(F)(F)F)c2)c2ccc(Cl)cn2)n1 (configuration not stated)
[7]
  pIC50: 4.96

## Fc1cc(C(F)(F)F)cc(C(Cc2ccccc2)(Nc2nc3ccccc3s2)c2ccc(Cl)cn2)c1 (configuration not stated)
[7]
  pIC50: 6.30
[8]
  pIC50: 4.64

## Fc1cc(C(F)(F)F)cc(C(Cc2ccccc2)(Nc2nc3ccccc3o2)c2ccc(Cl)cn2)c1 (configuration not stated)
[7]
  pIC50: 5.70

## Fc1cc(C(F)(F)F)cc(C(Cc2ccccc2)(Nc2nc3ccccc3[nH]2)c2ccc(Cl)cn2)c1 (configuration not stated)
[7]
  pIC50: 6.70
[8]
  pIC50: 4.71

## Fc1cc(C(F)(F)F)cc(C(Cc2ccccc2)(Nc2nnc(-c3ccccc3)[nH]2)c2ccc(Cl)cn2)c1 (configuration not stated)
[7]
  pIC50: < 4.49

## Fc1cc(C(F)(F)F)cc(C(Cc2ccccc2)(Nc2ncc(-c3ccccc3)o2)c2ccc(Cl)cn2)c1 (configuration not stated)
[7]
  pIC50: 4.92

## Fc1cc(C(F)(F)F)cc(C(Cc2ccccc2)(Nc2nc3c(s2)CCCC3)c2ccc(Cl)cn2)c1 (racemic)
[7]
  pIC50: 6.70
[8]
  pIC50: 4.69

## Cc1nc(NC(Cc2ccccc2)(c2cc(F)cc(C(F)(F)F)c2)c2ccc(Cl)cn2)sc1C (racemic)
[7]
  pIC50: 6.40
[8]
  pIC50: 4.53
